The source of these data is EP0920324B1, “PURE BIOLOGICALLY ACTIVE COLISTIN, ITS COMPONENTS AND A COLISTIN FORMULATION FOR TREATMENT OF PULMONARY INFECTIONS” (PATHOGENESIS CORPORATION, priority 1996, dated 1998).

Where a SMILES comes first, the peptide text is derived from it. Bridges are numbered along the chain shown (N, C = ends). [ ]: non-standard residue; d: D form. The star is where a group is joined. Octanoyl(6-Me) = CCC(C)CCCCC(=O)*; Dab = NCC[CH](N)C(=O)O Where only a bound is given, the exact number is not on record here.

A short description of data set [1]: Gravimetric titration with HCl to determine pKa.
Protocol: 107 mg of dry free base was suspended in 10.7 ml of deionized water and 1.21 M HCl was added under constant measurement of pH.
In order to determine the pKa of colistin component IV by titration, 107 mg of dry free base was suspended in 10.7 ml of deionized water in a 20 ml glass screwcap vial and stirred by magnetic stirrer. A calibrated Beckman Phi-10 pH meter with a Futura Plus combination electrode was placed in the suspension and the pH of the solution was monitored during the addition of 1.21 M HCl.
The test system of data set [2] is Pseudomonas aeruginosa. Briefly: Time kill kinetic studies (bactericidal activity). It is filed as cell-based. As for the experimental part: Henry D. Isenberg, ASM, Washington, DC (1992). The exact procedure is described in Example 14.
Briefly, tests were similar to those used for determining MICs, except that the final test volume was larger (10 mL) to allow sampling at various time points. […] Cultures were incubated at 37°C. At initial set-up and at various time-points, cultures were plated, with or without further dilution, onto sheep blood agar plates. Plates were incubated for 18-24 hours, and the number of CFU/mL was determined and plotted to determine the percentage of surviving organisms and the time required to achieve 99.9% killing. Results are seen in Figure 15.
Colony-forming unit (CFU) per ml were determined and plotted against drug exposure time in hours.
Time kill kinetic studies were performed as described in (Antimicrobial Susceptibility Testing, Section 5.16. Tests to assess bactericidal activity, in Clinical Microbiology Procedure Handbook (supra).
Tests were set in the same way used for determining MICs (Example 13), except that the final test volume was larger (10 mL) to allow sampling at various time points. Cultures were incubated at 37°C. At initial set-up and at various desired time-points, cultures were sampled and plated (with or without further dilution) onto sheep blood agar plates. Plates were incubated for 18-24 hours, and the number of CFU/mL was determined and plotted to determine the percentage of surviving organisms and the time required to achieve 99.9% killing.

Data set [3] in a line: Solution pH monitored over time after dissolution. It is filed as physicochemical. The note with it: 10.0, 15.0 and 20.0 mg/ml in water. On the procedure: These values correspond to concentrations of 3.7 mg/ml, 5.6 mg/ml and 7.4 mg/ml colistin base equivalent. Solution pH was monitored continuously at various times from 1 minute to 180 minutes and pH values and times were recorded.
Determination of component IV stability at physiologic pH was made by dissolving purified colistin component IV sulfate or hydrochloride at a concentration of 20 mg/ml in sterile water containing 120 mM NaCl. The solution was mixed and pH was monitored. A 10 N NaOH solution was used to adjust the solution pH to 6.95-7.00. Results are seen in Figure 16.
These values correspond to concentrations of 3.7 mg/ml, 5.6 mg/ml and 7.4 mg/ml colistin base equivalent. Solution pH was then monitored continuously using a Beckman Phi-10 pH meter fitted with a Beckman Futura Plus combination electrode calibrated at pH 4.0 and 7.0 as per manufacturer's instructions prior to use. At various times from 1 minute to 180 minutes, pH values and times were recorded.

The nature of data set [4]: Jet nebulization (Pari LC Jet nebulizer), aerosol characterized by laser diffraction particle analyzer. It is filed as physicochemical. As for the experimental part: Colistin component IV sulfate was dissolved in 120 mM sodium chloride, and the pH was adjusted to 7.0 with 1 molar sodium hydroxide.
Four ml of solution to be nebulized was placed in a Pari LC Jet nebulizer fitted with a Pulmonaide Compressor (DeVilbiss Model 5650D) with an air flow rate of 4-6 liters/minute. Aerosols generated are characterized by passing through a laser diffraction particle analyzer (Malvern Mastersizer X). Each formulation was analyzed multiple times to determine reproducibility of results, which were expressed as total obscuration time, mass median average diameter, and respirable fraction.
Results are shown in Figure 18, which is a comparison of the-times required for aerosolization of 4 mL of the three solutions. The two drug solutions were analyzed three times, and saline was analyzed four times. Bars show standard deviations of measurements.
Colistin component IV sulfate or hydrochloride formulations were as described above in Example 15.
Four ml of solution to be nebulized was placed in a Pari LC Jet nebulizer fitted with a Pulmonaide Compressor, DeVilbiss Model 5650D, with an air flow rate of 4-6 liters/minute. Aerosol generated was characterized by passing through a Malvern Mastersizer X laser diffraction particle analyzer. Each formulation was analyzed multiple times to determine reproducibility of results, which were expressed as total obscuration time, mass median particle diameter, and respirable fraction.
Mass median particle diameters were expressed as average ± standard deviation (n) for aerosols.
Average respirable fractions were calculated as average percentage of particles ranging from 1 micron to 6 microns in diameter within the aerosol over time.

The conditions of data set [5]: human, in vivo; cited from earlier work.
For data set [6] the following is noted: human, in vivo, iv; cited from earlier work.
For data set [7] the following is noted: human, in vivo, 1 h; cited from earlier work.
Setting [8] is: average ± standard deviation, n = 3, 20 mg/ml solutions.

Consider `CCC(C)CCCCC(=O)NC(CCN)C(=O)NC(C(=O)NC(CCN)C(=O)NC1CCNC(=O)C(C(C)O)NC(=O)C(CCN)NC(=O)C(CCN)NC(=O)C(CC(C)C)NC(=O)C(CC(C)C)NC(=O)C(CCN)NC1=O)C(C)O` (centres unmarked) [colistin component IV] ({Octanoyl(6-Me)}-[Dab]T[Dab][Dab][Dab]LL[Dab][Dab]T; lactam 4-C; configuration not given here), for which the pKa result was “approximately 9.0” in data set [1] (free base suspended in deionized water, titrated with 1.21 M HCl) and ~9 in data set [1] (water).
Consider colimycin, for which the “eradication of the Pseudomonas aeruginosa organism” value in data set [2] (8 µg/mL, at 4 hours of testing) was “did not, even at 4 hours of testing, eradicate the Pseudomonas aeruginosa organism”. The “killing of test organism” value in data set [2] (16 µg/mL, at 3 hours) is “over 5 logs”. Moreover, the “time at which over 5 logs killing was shown” value in data set [2] (64µg/mL) is listed as 1.5 hours. Further, in data set [2] (freshly dissolved), the “concentration required for a similar level of killing (over 5 logs within 2 hours)” value is 32 µg/ml. The “pH of solution within 3 minutes” value in data set [3] is recorded as > 7.5. In addition, in data set [4] (4 mL of 20 mg/ml solution, colistin component IV sulfate in 120 mM NaCl, isotonic, pH balanced, colimycin in 1/4 N saline, n = 3), the mean aerosolization time is 10.53 min. Also, in data set [4] (setting [8]), the “average respirable fraction (particles ranging from 1 micron to 6 microns in diameter)” value worked out at 58.77 ± 2.03 percentage and the “mass median particle diameter of the aerosol” value worked out at 4.11 ± 0.29 microns. In addition, the “patients reporting bronchoconstriction response as chest tightness” value in data set [5] was “approximately 65%”. Besides, in data set [6], the “occurrence of nephrotoxicity symptoms” value was “about 5 % cases” and the “occurrence of neurotoxicity symptoms” value is “about 29 % cases”. Also, the “drug converted to colistin in an hour” value in data set [7] is ~3%.

By pKa is commonly meant the pH at which an ionisable group is half protonated. Low readings indicate a group that gives up its proton readily, high ones a group that holds its proton tightly.
